The values below come from patent US20260240171A1, “BACTERICIDAL COMPOSITION COMPRISING BACILLUS VELEZENSIS TCS001 AND USE THEREOF” (priority 2023, published 2026).

The test system of test [1] is Bacillus velezensis TCS001. Briefly: Affinity screening of Bacillus velezensis TCS001 and boscalid. It is filed as cell-based. As to conditions: boscalid concentration 400 mg/L in LB plates, 28° C. On the procedure: Preparation of Bacillus velezensis TCS001 seed culture: 1,000 mL of LB solid medium (27 mL×30 vials) and 150 mL of LB liquid medium were prepared and sterilized; a single colony of Bacillus velezensis TCS001 was inoculated into the LB liquid medium and cultured in a shaker at 25° C., 164 rpm, for 16 h.
Preparation of toxin-containing medium: technical grade boscalid was dissolved in DMF to prepare a 10% stock solution for later use, which was diluted with sterile water containing 1%. Tween-80 to 10 times the test dose; 3 mL of the agent solution was sequentially pipetted from low concentration to high concentration, added to 27 mL of LB medium, thoroughly shaken, and equally poured into two culture dishes with a diameter of 9 cm to prepare agent-containing plates at corresponding concentrations. Each treatment had 2 replicates.
Affinity screening: the shaken Bacillus velezensis TCS001 seed culture was diluted to 1×10^6 CFU/mL; 40 μL was pipetted and spread onto the agent-containing plates and the control group plates, and incubated in a dark incubator at 28° C. The growth status of TCS001 was observed.

For test [2], the system named is strawberry gray mold-causing pathogen. Briefly: Indoor toxicity determination against strawberry gray mold on strawberry fruits. As to conditions: after 4 days. It is filed as in vivo. How it is done:
Bacillus velezensis TCS001, boscalid, and a mixture of Bacillus velezensis TCS001 and boscalid were diluted to the test doses. Healthy strawberry fruits were used as the test material. The strawberry fruits were immersed in the agent solution for 20 s. Each treatment had 3 replicates, with 9 fruits per replicate, and all fruits were uniformly punctured to a size of 5 mm×5 mm. A spore suspension of strawberry gray mold-causing pathogen at 1*10^5 spores/mL was prepared. After 24 h, the strawberry fruits treated with the agent solution were surface-sprayed with the spore suspension of strawberry gray mold-causing pathogen for inoculation. The strawberry fruits were placed in a high-humidity environment (RH 90-95%) and cultured at a constant temperature of 22° C. After 4 days, the lesion diameter was measured, and the inhibition rate (%) was calculated.
Inhibition rate (%)=(Diameter of colony in blank control−Diameter of colony in treatment)/Diameter of colony in blank control×100.
[formula] • X: inhibition rate of A at a dose of P; • Y: inhibition rate of B at a dose of Q; • E0: theoretical inhibition rate of A+B at a dose of (P+Q); and • E: actual inhibition rate of each treatment.
The Colby method was used to evaluate the synergistic effect of the combination. When E−E0>5%, a synergistic effect was indicated; when E−E0<−5%, an antagonistic effect was indicated; when the value of E−E0 was within ±5%, an additive effect was indicated.

In the case of `O=C(Nc1ccccc1-c1ccc(Cl)cc1)c1cccnc1Cl` [Boscalid], in test [1], the “colony count of Bacillus velezensis TCS001” value is on record as “comparable to that of the blank control”. In addition, the “Lesion Diameter” value came out at 1.77 cm in test [2] (10 mg/L); 1.73 cm in test [2] (12.5 mg/L); 1.66 cm in test [2] (16 mg/L); 1.14 cm in test [2] (25 mg/L); 1.04 cm in test [2] (33 mg/L); 0.99 cm in test [2] (50 mg/L). The “Lesion Diameter” value in test [2] (100 mg/L) stood at 0.85 cm; in test [2] (160 mg/L), 0.56 cm. For the same compound, the inhibition at 10 µg/mL in test [2] (96 h, 10 mg/L, read-out: Actual Inhibition Rate E) came out at 34.4%. The inhibition at 12.5 µg/mL in test [2] (96 h, 12.5 mg/L, read-out: Actual Inhibition Rate E) came out at 35.9%. Moreover, in test [2] (96 h, 16 mg/L, read-out: Actual Inhibition Rate E), the inhibition at 16 µg/mL came to 38.5%. In addition, the inhibition at 25 µg/mL in test [2] (96 h, 25 mg/L, read-out: Actual Inhibition Rate E) is 57.8%. In test [2] (96 h, 33 mg/L, read-out: Actual Inhibition Rate E), the inhibition at 33 µg/mL turned out to be 61.5%. Further, the inhibition at 50 µg/mL in test [2] (96 h, 50 mg/L, read-out: Actual Inhibition Rate E) turned out to be 63.3%. The inhibition at 100 µg/mL in test [2] (96 h, 100 mg/L, read-out: Actual Inhibition Rate E) came out at 68.5%. For the same compound, the inhibition at 160 µg/mL in test [2] (96 h, 160 mg/L, read-out: Actual Inhibition Rate E) came to 79.3%.
